Structures are written as SMILES.

One experiment concerns the target T1, Tyrosine-protein kinase JAK3 (Homo sapiens, UniProt P52333).
T1 sequence (P52333 whole entry): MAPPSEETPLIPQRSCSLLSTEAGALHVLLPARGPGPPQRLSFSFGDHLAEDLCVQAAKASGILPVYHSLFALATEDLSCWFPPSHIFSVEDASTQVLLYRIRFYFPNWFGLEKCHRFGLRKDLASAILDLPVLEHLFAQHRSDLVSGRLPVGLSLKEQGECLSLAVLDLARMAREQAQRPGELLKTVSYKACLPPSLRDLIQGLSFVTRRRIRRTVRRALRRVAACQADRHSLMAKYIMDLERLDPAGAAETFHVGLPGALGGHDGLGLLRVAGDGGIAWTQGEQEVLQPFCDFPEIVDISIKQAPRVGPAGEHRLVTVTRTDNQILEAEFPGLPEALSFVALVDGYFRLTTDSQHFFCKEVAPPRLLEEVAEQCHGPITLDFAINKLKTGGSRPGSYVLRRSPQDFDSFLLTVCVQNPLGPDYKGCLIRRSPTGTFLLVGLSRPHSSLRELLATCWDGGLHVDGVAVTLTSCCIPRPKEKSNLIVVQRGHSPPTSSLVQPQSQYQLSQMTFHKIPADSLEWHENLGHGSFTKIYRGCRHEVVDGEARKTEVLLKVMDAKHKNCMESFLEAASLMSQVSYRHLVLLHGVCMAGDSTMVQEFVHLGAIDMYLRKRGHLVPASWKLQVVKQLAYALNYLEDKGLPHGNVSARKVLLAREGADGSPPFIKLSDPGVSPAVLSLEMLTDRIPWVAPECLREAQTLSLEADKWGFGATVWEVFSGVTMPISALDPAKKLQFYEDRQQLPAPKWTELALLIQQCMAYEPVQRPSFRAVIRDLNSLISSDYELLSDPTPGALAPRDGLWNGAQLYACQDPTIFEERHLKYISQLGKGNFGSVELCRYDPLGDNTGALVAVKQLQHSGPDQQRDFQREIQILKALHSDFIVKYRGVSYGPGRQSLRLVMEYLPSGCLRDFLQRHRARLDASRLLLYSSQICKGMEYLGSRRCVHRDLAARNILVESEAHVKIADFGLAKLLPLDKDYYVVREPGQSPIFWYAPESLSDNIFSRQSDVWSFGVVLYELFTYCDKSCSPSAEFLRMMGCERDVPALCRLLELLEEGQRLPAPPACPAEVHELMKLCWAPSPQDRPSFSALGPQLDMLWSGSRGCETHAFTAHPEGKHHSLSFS
As to the kind of experiment: ChEBML_91954. From the text:
(§1) In vitro inhibition of Janus kinase 3.
The IC50 is the point on the concentration scale where inhibition reaches its midpoint. Read a high IC50 as lower potency. Compound `CC(=Cc1ccccc1)C(=O)CCN1CCOCC1` came in with an IC50 of 12.6 µM.

`COc1cc2ccc(C(=O)CCN3CCOCC3)cc2cc1OC` gave an IC50 of 200 µM. This IC50 lies about 16-fold higher than the previous one.

In turn, `COc1ccc2cc(C(=O)CCN3CCOCC3)ccc2c1` had an IC50 of 15.8 µM.

On to `N#C/C(=C\c1ccc(O)c(O)c1)C(=O)NCc1ccccc1`, for which inhibition was half-maximal at 12.6 µM (IC50).

In the case of `O=C(CCN1CCCCCC1)c1ccc2ccccc2c1`, 0.794 µM corresponded to half-maximal inhibition (IC50).

In the case of `O=C(C=Cc1ccccc1Cl)CCN1CCOCC1`, the IC50 was 12.6 µM.

On to `O=C(CCN1CCOCC1)c1ccc2ccc3ccccc3c2c1`, for which the IC50 was determined as 0.501 µM.

Regarding `CN(C)CCC(=O)c1ccc2ccccc2c1`, the IC50 was 0.63 µM. The IC50 values of the last two compounds are within 1.5-fold of each other.

With `C=CC(O)c1ccc2ccccc2c1` (stereo not drawn), half-maximal inhibition (IC50) was put at 501 µM.

`CC(C)N(CCC(=O)c1ccc2ccccc2c1)Cc1ccccc1` registered an IC50 of 0.0794 µM.

Compound `O=C(CCN1CCOCC1)c1ccc2ccccc2c1` gave an IC50 of 2 µM.

`C=CC(=O)c1ccc2ccccc2c1` [Thr1 inhibitor, 1] returned an IC50 of 0.0794 µM.

The compound `O=C(CCN1CCOCC1)c1cccc2ccccc12` showed a concentration for half-maximal inhibition (IC50) of 3.16 µM.

Another experiment has as its target T1, Tyrosine-protein kinase JAK3. Described as §1.
`CC(C)(CN1CCOCC1)C(=O)c1ccc2ccccc2c1`: the IC50 is greater than 1000 µM.

Take `ON=C(CCN1CCOCC1)c1ccc2ccccc2c1`: the half-maximal inhibitory concentration (IC50) was greater than 1000 µM.

`O=C(CCNCc1ccccc1)c1ccc2ccccc2c1` displayed an IC50 greater than 1000 µM.

The compound `O=c1c(CN2CCOCC2)coc2cc3ccccc3cc12` yielded an IC50 greater than 1000 µM.

Take `O=C(CCCN1CCOCC1)c1ccc2ccccc2c1`: the IC50 was greater than 1000 µM.
